Measured values: patent US8952024B2, “Herbicidal pyrimidone derivatives” (E I du Pont de Nemours and Company, priority 2009, dated 2015)

Tests used:
Type in all cases: in vivo
[1] = test system: Italian ryegrass (Lolium multiflorum); test: Test B pre-/postemergence plant response
Description: (§1) Seeds of plant species selected from blackgrass (Alopecurus myosuroides), downy bromegrass (Bromus tectorum), green foxtail (Setaria viridis), Italian ryegrass (Lolium multiflorum), wheat (Triticum aestivum), wild oat (Avena fatua), deadnettle (henbit deadnettle, Lamium amplexicaule), galium (catchweed bedstraw, Galium aparine), bermudagrass (Cynodon dactylon), Surinam grass (Brachiaria decumbens), cocklebur (Xanthium strumarium), corn (Zea mays), large crabgrass (Digitaria sanguinalis), woolly cupgrass (Eriochloa villosa), giant foxtail (Setaria faberii), goosegrass (Eleusine indica), johnsongrass (Sorghum halepense), kochia (Kochia scoparia), lambsquarters (Chenopodium album), morningglory (Ipomoea coccinea), nightshade (eastern black nightshade, Solanum ptycanthum), yellow nutsedge (Cyperus esculentus), pigweed (Amaranthus retroflexus), ragweed (common ragweed, Ambrosia elatior), Russian thistle (Salsola kali), soybean (Glycine max), sunflower (common oilseed sunflower, Helianthus annuus) and velvetleaf (Abutilon theophrasti) were planted into a blend of loam soil and sand and treated preemergence with test compounds formulated in a non-phytotoxic solvent mixture which included a surfactant.
(§2) At the same time, plants selected from these crop and weed species and also winter barley (Hordeum vulgare), canarygrass (Phalaris minor), chickweed (Stellaria media) and windgrass (Apera spica-venti) were planted in pots containing Redi-Earth® planting medium (Scotts Company, 14111 Scottslawn Road, Marysville, Ohio 43041) comprising spaghnum peat moss, vermiculite, wetting agent and starter nutrients and treated with postemergence applications of some of the test chemicals formulated in the same manner. Plants ranged in height from 2 to 18 cm (1- to 4-leaf stage) for postemergence treatments.
(§3) Treated plants and controls were maintained in a greenhouse for 13 to 15 days, after which time all treated plants were visually evaluated and compared to controls. Plant response ratings, summarized in Table B, are based on a scale of 0 to 100 where 0 is no effect and 100 is complete control. A dash (-) response means no test result.

[2] = test system: bermudagrass (Cynodon dactylon); test: Test B pre-/postemergence plant response
Description: as §1, §2, §3

[3] = test system: blackgrass (Alopecurus myosuroides); test: Test B pre-/postemergence plant response
Description: as §1, §2, §3

[4] = test system: corn (Zea mays); test: Test B pre-/postemergence plant response
Description: as §1, §2, §3

[5] = test system: downy bromegrass (Bromus tectorum); test: Test B pre-/postemergence plant response
Description: as §1, §2, §3

[6] = test system: giant foxtail (Setaria faberii); test: Test B pre-/postemergence plant response
Description: as §1, §2, §3

[7] = test system: goosegrass (Eleusine indica); test: Test B pre-/postemergence plant response
Description: as §1, §2, §3

[8] = test system: green foxtail (Setaria viridis); test: Test B pre-/postemergence plant response
Description: as §1, §2, §3

[9] = test system: johnsongrass (Sorghum halepense); test: Test B pre-/postemergence plant response
Description: as §1, §2, §3

[10] = test system: morningglory (Ipomoea coccinea); test: Test B pre-/postemergence plant response
Description: as §1, §2, §3

[11] = test system: pigweed (Amaranthus retroflexus); test: Test B pre-/postemergence plant response
Description: as §1, §2, §3

[12] = test system: ragweed (common ragweed, Ambrosia elatior); test: Test B pre-/postemergence plant response
Description: as §1, §2, §3

[13] = test system: soybean (Glycine max); test: Test B pre-/postemergence plant response
Description: as §1, §2, §3

[14] = test system: velvetleaf (Abutilon theophrasti); test: Test B pre-/postemergence plant response
Description: as §1, §2, §3

[15] = test system: wheat (Triticum aestivum); test: Test B pre-/postemergence plant response
Description: as §1, §2, §3

[16] = test system: canarygrass (Phalaris minor); test: Test B postemergence plant response; settings: Postemergence
Outline: (§4)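 Plants grown in peat/vermiculite medium were sprayed postemergence at 2–18 cm height (1- to 4-leaf stage). After 13–15 days in the greenhouse, response was rated visually against untreated controls on a 0–100 scale (0 no effect, 100 complete control).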

[17] = test system: chickweed (Stellaria media); test: Test B postemergence plant response; settings: Postemergence
Outline: as §4

[18] = test system: winter barley (Hordeum vulgare); test: Test B postemergence plant response; settings: Postemergence
Outline: as §4

[19] = 250 g ai/ha, Preemergence, 0 to 100 scale
[20] = Postemergence, 31 g ai/ha, scale 0 to 100 (0 no effect, 100 complete control)
[21] = Postemergence, 62 g ai/ha, scale 0 (no effect) to 100 (complete control), 13 to 15 days
[22] = Postemergence, 125 g ai/ha, visual rating after 13 to 15 days, scale 0 (no effect) to 100 (complete control)
[23] = Postemergence, 250 g ai/ha, scale 0 to 100
[24] = Preemergence, 31 g ai/ha, scale 0 to 100 (0 no effect, 100 complete control)
[25] = Preemergence, 62 g ai/ha, scale 0 to 100, 0 no effect, 100 complete control
[26] = Preemergence, 125 g ai/ha, 0 to 100 scale
[27] = 31 g ai/ha, scale 0 to 100 (0 no effect, 100 complete control)
[28] = 62 g ai/ha, scale 0 (no effect) to 100 (complete control), 13 to 15 days
[29] = 125 g ai/ha, visual rating after 13 to 15 days, scale 0 (no effect) to 100 (complete control)

SMILES: Cc1cccc(-n2c(-c3ccccc3)ncc(C(=O)C3=C(O)CCCC3=O)c2=O)c1C [Compound 27]
- Plant response rating, Ryegrass, Italian [1, 19]: 0
- Plant response rating, Ryegrass, Italian [1, 20]: 0
- Plant response rating, Ryegrass, Italian [1, 21]: 5
- Plant response rating, Ryegrass, Italian [1, 22]: 5
- Ryegrass, Italian plant response rating [1, 23]: 10
- Plant response rating, Ryegrass, Italian [1, 24]: 0
- Plant response rating, Ryegrass, Italian [1, 25]: 0
- Ryegrass, Italian plant response rating [1, 26]: 0
- Plant response rating, Bermudagrass [2, 19]: 100
- Plant response rating, Bermudagrass [2, 20]: 70
- Plant response rating, Bermudagrass [2, 21]: 90
- Plant response rating, Bermudagrass ([2]; Postemergence, 125 g ai/ha, scale 0 to 100 (0 no effect, 100 complete control), 13 to 15 days): 100
- Bermudagrass plant response rating [2, 23]: 100
- Plant response rating, Bermudagrass [2, 24]: 70
- Plant response rating, Bermudagrass [2, 25]: 98
- Bermudagrass plant response rating [2, 26]: 100
- Plant response rating, Blackgrass [3, 19]: 30
- Plant response rating, Blackgrass [3, 20]: 0
- Plant response rating, Blackgrass [3, 21]: 5
- Plant response rating, Blackgrass [3, 22]: 45
- Blackgrass plant response rating [3, 23]: 50
- Plant response rating, Blackgrass [3, 24]: 0
- Plant response rating, Blackgrass [3, 25]: 0
- Blackgrass plant response rating [3, 26]: 10
- Plant response rating, Corn [4, 19]: 0
- Plant response rating, Corn [4, 20]: 35
- Plant response rating, Corn [4, 21]: 40
- Plant response rating, Corn [4, 22]: 50
- Corn plant response rating [4, 23]: 70
- Plant response rating, Corn [4, 24]: 0
- Plant response rating, Corn [4, 25]: 0
- Corn plant response rating [4, 26]: 0
- Plant response rating, Bromegrass, Downy [5, 19]: 30
- Plant response rating, Bromegrass, Downy [5, 20]: 5
- Plant response rating, Bromegrass, Downy [5, 21]: 5
- Plant response rating, Bromegrass, Downy [5, 22]: 20
- Bromegrass, Downy plant response rating [5, 23]: 30
- Plant response rating, Bromegrass, Downy [5, 24]: 0
- Plant response rating, Bromegrass, Downy [5, 25]: 0
- Bromegrass, Downy plant response rating [5, 26]: 0
- Plant response rating, Foxtail, Giant [6, 19]: 95
- Plant response rating, Foxtail, Giant [6, 20]: 65
- Plant response rating, Foxtail, Giant [6, 21]: 85
- Plant response rating, Foxtail, Giant [6, 22]: 90
- Foxtail, Giant plant response rating [6, 23]: 90
- Plant response rating, Foxtail, Giant [6, 24]: 0
- Plant response rating, Foxtail, Giant [6, 25]: 5
- Foxtail, Giant plant response rating [6, 26]: 85
- Plant response rating, Goosegrass [7, 19]: 100
- Plant response rating, Goosegrass [7, 20]: 90
- Plant response rating, Goosegrass [7, 21]: 90
- Plant response rating, Goosegrass [7, 22]: 98
- Goosegrass plant response rating [7, 23]: 98
- Plant response rating, Goosegrass [7, 24]: 80
- Goosegrass plant response rating [7, 26]: 100
- Plant response rating, Foxtail, Green [8, 19]: 80
- Plant response rating, Foxtail, Green [8, 20]: 80
- Plant response rating, Foxtail, Green [8, 21]: 80
- Plant response rating, Foxtail, Green [8, 22]: 80
- Foxtail, Green plant response rating [8, 23]: 90
- Plant response rating, Foxtail, Green [8, 24]: 0
- Plant response rating, Foxtail, Green [8, 25]: 30
- Foxtail, Green plant response rating [8, 26]: 50
- Plant response rating, Johnsongrass [9, 19]: 85
- Plant response rating, Johnsongrass [9, 20]: 40
- Plant response rating, Johnsongrass [9, 21]: 45
- Plant response rating, Johnsongrass [9, 22]: 45
- Johnsongrass plant response rating [9, 23]: 80
- Plant response rating, Johnsongrass [9, 24]: 0
- Plant response rating, Johnsongrass [9, 25]: 5
- Johnsongrass plant response rating [9, 26]: 50
- Plant response rating, Morningglory [10, 19]: 100
- Plant response rating, Morningglory [10, 20]: 50
- Plant response rating, Morningglory [10, 21]: 80
- Plant response rating, Morningglory [10, 22]: 80
- Morningglory plant response rating [10, 23]: 90
- Plant response rating, Morningglory [10, 24]: 100
- Plant response rating, Morningglory [10, 25]: 100
- Morningglory plant response rating [10, 26]: 100
- Plant response rating, Pigweed [11, 19]: 100
- Plant response rating, Pigweed [11, 20]: 98
- Plant response rating, Pigweed [11, 21]: 98
- Plant response rating, Pigweed [11, 22]: 100
- Pigweed plant response rating [11, 23]: 100
- Plant response rating, Pigweed [11, 24]: 100
- Plant response rating, Pigweed [11, 25]: 100
- Pigweed plant response rating [11, 26]: 100
- Plant response rating, Ragweed [12, 19]: 100
- Plant response rating, Ragweed [12, 20]: 85
- Plant response rating, Ragweed [12, 21]: 98
- Plant response rating, Ragweed [12, 22]: 100
- Ragweed plant response rating [12, 23]: 100
- Plant response rating, Ragweed [12, 24]: 85
- Plant response rating, Ragweed [12, 25]: 85
- Ragweed plant response rating [12, 26]: 100
- Plant response rating, Soybean [13, 19]: 90
- Plant response rating, Soybean [13, 20]: 95
- Plant response rating, Soybean [13, 21]: 95
- Plant response rating, Soybean [13, 22]: 95
- Soybean plant response rating [13, 23]: 100
- Plant response rating, Soybean [13, 24]: 70
- Plant response rating, Soybean [13, 25]: 70
- Soybean plant response rating [13, 26]: 80
- Plant response rating, Velvetleaf [14, 19]: 95
- Plant response rating, Velvetleaf [14, 20]: 50
- Plant response rating, Velvetleaf [14, 21]: 60
- Plant response rating, Velvetleaf [14, 22]: 80
- Velvetleaf plant response rating [14, 23]: 90
- Plant response rating, Velvetleaf [14, 24]: 55
- Plant response rating, Velvetleaf [14, 25]: 85
- Velvetleaf plant response rating [14, 26]: 90
- Plant response rating, Wheat [15, 19]: 5
- Plant response rating, Wheat [15, 20]: 0
- Plant response rating, Wheat [15, 21]: 5
- Plant response rating, Wheat [15, 22]: 10
- Wheat plant response rating [15, 23]: 30
- Plant response rating, Wheat [15, 24]: 0
- Plant response rating, Wheat [15, 25]: 0
- Wheat plant response rating [15, 26]: 0
- Plant response rating, Canarygrass [16, 27]: 10
- Plant response rating, Canarygrass [16, 28]: 10
- Plant response rating, Canarygrass [16, 29]: 30
- Canarygrass plant response rating ([16]; 250 g ai/ha, scale 0 to 100): 50
- Plant response rating, Chickweed [17, 27]: 40
- Plant response rating, Chickweed [17, 28]: 45
- Plant response rating, Chickweed [17, 29]: 50
- Chickweed plant response rating ([17]; 250 g ai/ha, scale 0 to 100): 80
- Plant response rating, Barley [18, 27]: 0
- Plant response rating, Barley [18, 28]: 0
- Plant response rating, Barley ([18]; 125 g ai/ha, scale 0 to 100 (0 no effect, 100 complete control), 13 to 15 days): 10
- Barley plant response rating ([18]; 250 g ai/ha, scale 0 to 100): 20
